Assays:
[1] = tested on: human embryonic stem cells (hESC) and induced pluripotent stem cells (iPSC); assay: Differentiation of pluripotent stem cells (hESC or iPSC) into cardiomyocytes; type: cell-based; design: key to Amount of cardiomyocytes obtained: (−) No cardiomyocytes obtained; (+)—(+++): Amount of cardiomyocytes obtained; (+)—(+++): Amount of cardiomyocytes obtained; (+)—(+++): Amount of cardiomyocytes obtained; conditions: for Ability to induce cardiomyocyte differentiation: other Wnt inhibitors tested instead of Wnt-C59; for Amount of cardiomyocytes obtained: Experiments I-III
Procedure: (§1) To initialize differentiation, the cells are incubated in insulin-free medium comprising compound 21 (3-(3-Amino-phenyl)-4-(1-methyl-1H-indol-3-yl)-pyrrole-2,5-dione, also referred to as “compound 21” or “CP21” herein; see e.g., Gong et al. (2010) Bioorganic& Medicinal Chemistry Letters 20:1693-1696) to activate the wnt-pathway. The optimal concentration of compound 21 to induce cardiomyocyte differentiation is dependent on the cell density of the pluripotent cells that are attached to the cell vessel. […] This is surprising as prior art protocols require higher concentrations of other modulators of the Wnt pathway for efficient differentiation.
(§2) The optimal concentration was identified at 2 μM. […] In one embodiment, step c) of the differentiation method comprises incubating the cells in a medium comprising 1-10 μM Wnt-C59. In one preferred embodiment step c) of the differentiation method comprises incubating the cells in a medium comprising 2 μM Wnt-C59.
Anthelmintic niclosamide and Pyrvinium were tested for their ability to induce cardiomyocyte differentiation.
Human embryonic stem cells (hESC) or induced pluripotent stem cells (iPSC) were cultured in 56 cm^2 dishes coated with Matrigel (BD Bioscience, Cat. 354277) at 37° C. and 5% CO2 in 10 ml mTeSR1 medium (Stemcell Technologies, Cat. 05850).
To propagate pluripotent stem cells by conserving their pluripotent state, hESC or iPSC were treated with the following: the cells were washed once with 10 ml PBS−/−, and afterwards incubated with 3 ml Accutase (Innovative Cell Technologies, Cat. AT-104) for 2-3 minutes at 37° C. and 5% CO2, to detach the cells.
The enzymatic reaction of Accutase was stopped with 7 ml mTeSR1 and followed by centrifugation of the cells for 3 minutes at 500×g.
The cells were resuspended in 10 ml mTeSR1, and counted. For further cultivation, 2×10^6 cells were plate on 56 cm^2 dishes with fresh coated Matrigel. Further the hESC or iPSC were cultivated in 10 ml mTeSR1 and 10 μM Rock inhibitor, Y-27632 (Millipore, Cat. SCM075) at 37° C. and 5% CO2. Subsequently, 10 ml mTeSR1 medium was changed daily and the pluripotent stem cells were cultivated to a density of 80% before passaging.
For successful differentiation into cardiomyocytes, pluripotent stem cells were plated at high density using 5.5×10^5/cm^2 of hESC or iPSC. Passaging and cultivation were performed as described above for pluripotent stem cells.
After 24 hours (day 1) the hESC or iPSC were washed once with 180 μl/cm^2 PBS−/− and the cultivation medium was changed to 180 μl/cm^2 differentiation medium.
After 24 hours (day 2) incubation with CP21, the cells were washed with PBS−/− as described above and cultivated for 48 hours in 220 μl/cm^2 differentiation medium.
After 48 hours (day 4), the cells were washed with PBS−/− as described above and cultivated for 48 hours in 220 μl/cm^2 differentiation medium comprising 2 μM Wnt-C59 (Cellagen Technology, Cat. C7641-2s, International Patent Application Publication No. WO 20101 01849), a potent Wnt signaling inhibitor, by blocking Wnt secretion.
After 48 hours (day 6), the cells were washed with PBS−/− as described above and cultivated for 48 hours in 220 μl/cm^2 differentiation medium.
After 48 hours (day 8), the cells were washed with PBS−/− as described above and cultivated for 48 hours in 220 μl/cm^2 RPMI medium comprising ascorbic acid, penicillin-streptomycin, but now including B27 plus insulin, minus vitamin A (=expansion medium)
Subsequent medium changes were performed every 48 hours using 220 μl/cm^2 expansion medium.
To test the efficiency of the differentiation process, the cardiomyocytes were characterized at differentiation day 14 by cell immunohistochemistry and Fluorescence Activated Cell Sorting (FACS) using antigens specific to cardiomyocytes.
The protocol as described above was repeated with different CP21 concentrations. The results are shown in Table 1 below: (−) No cardiomyocytes obtained, (+)—(+++): Amount of cardiomyocytes obtained.

[2] = tested on: pluripotent cells (hESC or iPSC); assay: Cell viability / cell death during the differentiation protocol; type: cell-based
Procedure: as §1, §2

[3] = tested on: pluripotent stem cell derived cardiomyocytes; assay: xCELLigence cardiomyocyte beating analysis; type: cell-based, human
Procedure: Isoproterenol increases the heart rate and myocardial contractility by stimulating cardiac beta-1 receptors. To detect this proarrhythmic effect in the stem cell derived cardiomyocytes, 7×10^4/cm^2 cells were plated on special E-Plate Cardio 96 (Roche, Cat. No. 05232368001) coated with 130 μl/cm^2 0.1% Gelatine for 1 hour at 37° C. After cells attached to the plate and recovered for 2 days as described above, medium was changed to iCell Cardiomyocytes Maintenance Medium (Cellular Dynamics, Cat. No.CMM-100-120-005). Cells were measured using the xCELLigence RTCA Cardio System (Roche Applied Science). 7 days after plating the cells were treated with 3 μM Isoproterenol and measured directly. Each 96-well plate was measured at a resolution of 12.9 ms. The first 3 minutes were measured without interruption and over the next 24 hours the cells were measured every 15 minutes for 1 minute duration. Activation of β-receptors on the heart induces positive chronotropic effects in cardiomyocytes. To confirm that the pluripotent stem cell derived cardiomyocytes respond to β-receptor activation, the cardiomyocytes were incubated with the β-receptor agonist isoproterenol and subsequently analysed using the xCELLigence system.

Cc1cc(/C=C/c2ccc3cc(N(C)C)ccc3[n+]2C)c(C)n1-c1ccccc1 [Pyrvinium]
Ability to induce cardiomyocyte differentiation [1]: did not result in a successful generation of cardiomyocytes

Cn1cc(C2=C(c3cccc(N)c3)C(=O)NC2=O)c2ccccc21 [CP21, 3-(3-Amino-phenyl)-4-(1-methyl-1H-indol-3-yl)-pyrrole-2,5-dione]
Amount of cardiomyocytes obtained ([1]; Cp21 conc. 0.3 μM): − | Amount of cardiomyocytes obtained ([1]; Cp21 conc. 1 μM): + | Amount of cardiomyocytes obtained ([1]; Cp21 conc. 2 μM): ++ and +++ | Amount of cardiomyocytes obtained ([1]; Cp21 conc. 3 μM): ++ and + | Amount of cardiomyocytes obtained ([1]; Cp21 conc. 5 μM): + and − | Amount of cardiomyocytes obtained ([1]; Cp21 conc. 10 μM): − | Concentration resulting in the most efficient differentiation of pluripotent stem cells into cardiomyocytes ([1]; cell density 5.5×10^5/cm^2, tested 0-10 μM at 1.8-11×10^5/cm2 hESC or iPSC): 2 µM | Incubation time optimal for cardiogenesis ([1]; various incubation times tested, longer or shorter less efficient): 24 h | Cell death after incubation ([2]; After 24 h CP21 incubation): strong cell death | Concentrations showing decreased cell viability ([2]; step b) of differentiation): above 5 μM

CC(C)NCC(O)c1ccc(O)c(O)c1 (centres unmarked) [isoproterenol]
Beating rate ([3]; 3 μM isoproterenol, untreated control 45 beats per minute): 60 beats per minute | Effect on beating frequency ([3]; FIG. 5, xCELLigent analysis): increases beating frequency

Cc1cc(-c2ccc(CC(=O)Nc3ccc(-c4cccnc4)cc3)cc2)ccn1 [Wnt-C59, 2-(4-(2-methylpyridin-4-yl)phenyl)-N-(4-(pyridin-3-yl)phenyl)acetamide]
Optimal concentration for cardiomyocyte differentiation ([1]; Wnt repressor in step c), tested 1-10 μM): 2 µM | Effect on cardiomyocytes obtained ([1]; Wnt-C59 1-10 μM, step c)): significant increase in cardiomyocytes | Concentrations showing increased cell death ([2]; step c) of differentiation): more than 5 μM

O=C(Nc1ccc([N+](=O)[O-])cc1Cl)c1cc(Cl)ccc1O [Anthelmintic niclosamide, niclosamide]
Ability to induce cardiomyocyte differentiation [1]: did not result in a successful generation of cardiomyocytes
